Measurements taken from PMC9011347, “Small-Molecule Inhibitors Targeting Lipolysis in Human Adipocytes” (Journal of the American Chemical Society, 2022).

Test system: HepG2 cells
Test: Untargeted lipidomic analysis (UHPLC-MS, OPLS-DA)
Assay type: cell-based, human
Settings: 40 μM, 3 h, versus DMSO
Procedure: Figure 2 Development and characterization of the human ATGL inhibitor NG-497. (a) Structure and IC50 values of human ATGL inhibitors. (b) Dose-dependent inhibition of human ATGL by respective inhibitors. (c) ATGL activity was determined at the indicated substrate concentrations in the absence and presence of NG-497 (0.5 μM). Ki was determined by nonlinear regression analysis using GraphPad Prism. Lineweaver–Burk analysis of ATGL inhibition is shown in the inset. (d) Toxicity of NG-497 in HepG2 cells was determined after 24 h incubation at indicated concentrations. Cisplatin and DMSO were used as positive and negative controls, respectively. Cytotoxicity was determined using the Roche LDH Kit and calculated as relative LDH release compared to fully lysed cells. (e) Stability of NG-497 was analyzed via ultrahigh-performance liquid chromatography–mass spectrometry (UHPLC-MS) after incubation in human serum for 0 or 3 h at 37 °C. Atglistatin and a chemically related unstable compound were used as controls. […] NG-497 concentrations/well were determined at the indicated time points using UHPLC-MS. […] Statistical significance was determined via t test (*p < 0.05; **p < 0.01; ***p < 0.001) or ANOVA followed by Bonferroni post hoc test (^###p < 0.001). […] The detected 297 lipid species of both groups were analyzed with supervised multivariate analysis OPLS-DA and are shown as a loading plot. […]

With CCOc1ccc(-c2cc(OC)cc(C(=O)OC(C)C)n2)cc1 [NG-497] the “lipidomic changes (OPLS-DA top 25 contributing lipid species)” value was 20 of the top 25 hits were due to an increase of TAG species, while three DAG species were decreased.
